Counter-ions that a name gives are not always drawn.
Assays:
[1] = test system: Raji human Burkitt's lymphoma; test: Raji cell proliferation (Coulter count, trypan blue); assay type: cell-based; conditions: 48 hours
Experimental: FIG. 3A illustrates Raji cells (2×10^5) that were cultured in the presence of indicated concentrations of C-MED-100®, QAA or QA. Growth rate was assayed after 48 hours by counting triplicate samples of duplicate cultures in a Coulter cell counter. Results from one representative experiment out of two performed is presented as mean values of cell/ml±standard deviation (S.D).
FIG. 3B illustrates triplicate samples of cells from duplicate parallel cultures stained with trypan blue at indicated times and counted.
(§1) Cell cultures: Raji human Burkitt's lymphoma (CCL-86), Jurkat human acute T-cell leukemia (TIB-152), 70Z/3 mouse pre-B lymphocyte cell line (TIB-158), or mouse spleen cells were used in the experiments. The cells were cultured in RPMI medium (Life Technologies) supplemented with 10% FCS, 10 mM HEPES buffer, antibiotics, 50 μM 2-mercaptoethanol and 1 mM sodium pyruvate (all supplements from Life Technologies) at 37° C., 5% CO2. The number of Raji cells in duplicate cultures were determined with a Coulter Z1 cell counter (Beckman Coulter Inc, Fullerton, Calif., USA) three times each. The number of viable and dead cells were determined using trypan blue exclusion, by counting three independent samples from duplicate cultures. […] Proliferation was detected by measuring thymidine incorporation after a 4 hours pulse with 1 μCi ^3[H]-thymidine (Amersham Pharmacia).

mouse spleen cells = assay type: cell-based; conditions: for fraction of apoptotic T cells: Con A stimulated cultures (FIG. 4B); for induction of cell death in mitogen-stimulated spleen cells: mouse
From the text: Cells from parallel cultures were stained with trypan blue and the mean absolute number of viable and dead cells/ml from one out of three similar experiments are shown. […] Aliquots of the above cultures were stained with Annexin V and 7AAD and analyzed by flow cytometry. The results are presented as the mean number of Annexin V^+7AAD^− (apoptotic) and 7AAD^+ (dead) cells/ml±S.D. of duplicates from three experiments with similar results. Statistically significant differences (*p<0.05) and (**p<0.01) compared to the control cultures stimulated with Con A (FIG. 4B) or LPS (FIG. 4C) alone.
Cell cultures: Raji human Burkitt's lymphoma (CCL-86), Jurkat human acute T-cell leukemia (TIB-152), 70Z/3 mouse pre-B lymphocyte cell line (TIB-158), or mouse spleen cells were used in the experiments. The cells were cultured in RPMI medium (Life Technologies) supplemented with 10% FCS, 10 mM HEPES buffer, antibiotics, 50 μM 2-mercaptoethanol and 1 mM sodium pyruvate (all supplements from Life Technologies) at 37° C., 5% CO2. The number of Raji cells in duplicate cultures were determined with a Coulter Z1 cell counter (Beckman Coulter Inc, Fullerton, Calif., USA) three times each. The number of viable and dead cells were determined using trypan blue exclusion, by counting three independent samples from duplicate cultures. Cells were stained with 2 μg/ml 7-amino-actinomycin D (7AAD; Sigma-Aldrich, St Louis, Mo., USA) and with Annexin V (Molecular Probes) according to the manufacturer's protocol and the cells were defined as apoptotic (Annexin V+7AAD^−) or dead (7AAD^+) by flow cytometry. Spleen cells were polyclonally activated with 2.5 μg/ml concanavalin A (Con A; Amersham Pharmacia, Uppsala, Sweden) or 10 μg/ml lipopolysaccharide (LPS; Sigma-Aldrich). PMA (50 ng/ml) and ionomycin (1 μM) (both from Sigma-Aldrich) and pyrollidine dithiocarbamate (PDTC) (100 μM, EMD Bioscience Inc, Calbiochem, San Diego, Calif., USA) were used in some cultures as indicated. Proliferation was detected by measuring thymidine incorporation after a 4 hours pulse with 1 μCi ^3[H]-thymidine (Amersham Pharmacia).

Raji cells = test: Raji cell death and apoptosis (Annexin V / 7AAD flow cytometry); assay type: cell-based, human
From the text: Cells from the same cultures as in FIG. 3B were stained with Annexin V and 7AAD and analyzed by flow cytometry. The results are presented as the mean number of Annexin V^+ 7AAD^− (apoptotic) or 7AAD^+ (dead) cells±S.D. of duplicates from three experiments with similar results. Statistically significant differences (*p<0.05) and (**p<0.01), compared to Raji cells grown in medium (no drug).
as §1

DXR-induced leucopenia = test: Doxorubicin (DXR)-induced leucopenia rat model, recovery of peripheral WBC; assay type: in vivo; conditions: 200 mg/kg gavage, compared to C-MED-100
From the text: In vivo evaluation of the efficacy of quinic acid as an active ingredient isolated from water soluble Cat's Claw extracts. A rat model was used to evaluate if active ingredients isolated from water soluble extracts of Cat's Claw could be shown to be effective in vivo by inducing recovery of peripheral white blood cells (WBC) after doxorubicin (DXR)-induced leucopenia. […] The rat study experimental design used to compare quinic acid and C-MED-100® is outlined in detail (diagrammatic form) below.
50 female W/Fu rats, weighing 150-180 g each, were divided into 5 groups of 10 rats per group. Doxorubicin, obtained from Pharmacia and Upjohn, was administered in a 2 mg/kg dose for all rats groups 2-5, IP injection (day 1, 3, 5). Group 3 also received C-MED-100® (Batch No E-40622), administered in a dose of 80 mg/kg, gavage daily from day 6 (24 hours after the third/last treatment of DXR) to the end of experiment (day 21/22). […]
The body weight (GM) of each rat was measured before and at the end of the experiment. […] Whole peripheral blood samples were collected into K3-EDTA containing tubes by periorbital puncture and then analyzed for WBC within 1 hour with an automated hematology analyzer (Sysmex, K-1000) Organ weights from major tissues (liver, kidney, lung, heart, spleen) were also collected and used as an indicator of any toxicity.

NF-κB = NF-κB reporter (luciferase) in transfected Jurkat T cells; assay type: cell-based, human; conditions: PMA 50 ng/ml and ionomycin 1 μM, 2 h pre-culture, 6 h stimulation
Experimental: FIG. 5A illustrates Jurkat T that are cells transfected with a NF-κB reporter construct were pre-cultured with various concentrations of QA or C-MED-100® for two hours. PMA (50 ng/ml) and ionomycin (1 μM) were thereafter added and the cells incubated for another six hours. The mean induction of luciferase activity in triplicate cultures from one representative experiment out of four are shown (left panel). QA induced no cell death or apoptosis in Jurkat T cells at concentrations which inhibited NF-κB activity. Jurkat T cells were incubated with various concentrations of QA for 24 hours and thereafter stained with Annexin V and 7AAD before analysis by flow cytometry. The data are the mean values±S.D. of triplicates from one representative experiment out of two performed (right panel). Transient transfection and analysis of luciferase activity: The reporter construct containing NF-κB binding sequences and the luciferase reporter gene was previously described. […] The cells were lysed and aliquots of the lysates analyzed for luciferase activity using the Luciferase Assay System (Promega, Madison, Wis.). Luminiscence was quantitated in a MicroLumat LB 96 P luminometer (EG&G Berthold, Wallac […], Upplands Väsby, Sweden).

O=C(O)C1(O)CC(O)C(O)C(O)C1 (stereo not drawn) [QA, 1,3,4,5-tetrahydroxy-cyclohexanecarboxylic acid]
Raji cell proliferation [1]: neither inhibited the proliferation of Raji tumor cells
fraction of apoptotic T cells (mouse spleen cells): tendency to reduction (p=0.053)
induction of cell death in mitogen-stimulated spleen cells (mouse spleen cells): neither C-MED-100®, QAA nor QA induce cell death
induction of cell death in Raji cells (Raji cells): do not induce cell death
recovery from DXR-induced leucopenia (DXR-induced leucopenia): could induce recovery from DXR-induced leucopenia about as effectively as 80 mg/kg C-MED-100® could
NF-κB activity (luciferase reporter) (NF-κB): in a dose dependent manner, inhibited the NF-κB activity

O=C(O)[C@]1(O)C[C@@H](O)[C@@H](O)[C@H](O)C1 [QAA, quinic acid ammonium salt]
Raji cell proliferation [1]: inhibited cell proliferation in a dose dependent manner
fraction of apoptotic T cells (mouse spleen cells): significantly reduced the fraction of apoptotic T cells
induction of cell death in mitogen-stimulated spleen cells (mouse spleen cells): neither C-MED-100®, QAA nor QA induce cell death
induction of cell death in Raji cells (Raji cells): do not induce cell death
recovery from DXR-induced leucopenia (DXR-induced leucopenia): could induce recovery from DXR-induced leucopenia about as effectively as 80 mg/kg C-MED-100® could
NF-κB activity (luciferase reporter) (NF-κB): inhibited the NF-κB activity to a similar extent as QA

Reference: patent publication US7947312B2, “Method of preparation and composition of a water soluble extract of the bioactive component of the plant species Uncaria for enhancing immune, anti-inflammatory, anti-tumor and DNA repair processes of warm blooded animals” (priority 2002, dated 2011)
